# Measurements reported in ChEMBL document CHEMBL1201862, “PubChem BioAssay data set” (2004).
#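 Interpolation was linear, between the two tested concentrations surrounding the appropriate level; five concentrations were tested over 48 hours in 96-well plates. The concentration for 50% growth inhibition is given as GI50.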 Activity calls are given as the source filed them. Cut-off read from the data, not from the text of the source: active = GI50 up to about 1.1 µM and inactive = higher.
# Tests used:
# Assay in all cases: NCI tumour cell line growth inhibition, 48 h
# ACHN = test system: ACHN
# CAKI-1 = test system: CAKI-1
# COLO 205 = test system: COLO 205
# HCC 2998 = test system: HCC 2998
# HCT-116 = test system: HCT-116
# HOP-62 = test system: HOP-62
# HOP-92 = test system: HOP-92
# KM12 = test system: KM12
# NCI-H226 = test system: NCI-H226
# NCI-H460 = test system: NCI-H460
# OVCAR-4 = test system: OVCAR-4
# OVCAR-5 = test system: OVCAR-5
# PC-3 = test system: PC-3
# RXF 393 = test system: RXF 393
# SK-MEL-28 = test system: SK-MEL-28
# SN12C = test system: SN12C
# SW-620 = test system: SW-620
# U-251 = test system: U-251
# UACC-257 = test system: UACC-257
# UO-31 = test system: UO-31
Compound,GI50 (ACHN),GI50 (CAKI-1),GI50 (COLO 205),GI50 (HCC 2998),GI50 (HCT-116),GI50 (HOP-62),GI50 (HOP-92),GI50 (KM12),GI50 (NCI-H226),GI50 (NCI-H460),GI50 (OVCAR-4),GI50 (OVCAR-5),GI50 (PC-3),GI50 (RXF 393),GI50 (SK-MEL-28),GI50 (SN12C),GI50 (SW-620),GI50 (U-251),GI50 (UACC-257),GI50 (UO-31)
CCCCCCCCCCCCCCCCCCNc1nc(=O)n(C2CC(O)C(COP(=O)(O)OCC3OC(n4ccc(N)nc4=O)C(O)C3O)O2)cc1F (stereo not drawn),18.7 µM (inactive),92.5 µM (inactive),26.9 µM (inactive),11.8 µM (inactive),9.35 µM (inactive),18.7 µM (inactive),31.1 µM (inactive),> 100 µM (inactive),> 100 µM (inactive),4.5 µM (inactive),93.5 µM (inactive),52.6 µM (inactive),28.6 µM (inactive),> 100 µM (inactive),> 100 µM (inactive),27 µM (inactive),> 100 µM (inactive),23.7 µM (inactive),> 100 µM (inactive),24.5 µM (inactive)
CC(C)(Cl)C(Cl)CC/C(CBr)=C(\Cl)CBr (stereo not drawn),3.66 µM (inactive),2.62 µM (inactive),2.62 µM (inactive),9.68 µM (inactive),2.23 µM (inactive),2.24 µM (inactive),1.75 µM (inactive),2.08 µM (inactive),1.79 µM (inactive),2.71 µM (inactive),1.51 µM (inactive),2.29 µM (inactive),3.15 µM (inactive),1.53 µM (inactive),2.03 µM (inactive),2.45 µM (inactive),1.6 µM (inactive),1.83 µM (inactive),2.08 µM (inactive),3.08 µM (inactive)
Cc1cc(-c2nc3ccccc3s2)ccc1NC(=O)[C@H](C)N,13.6 µM (inactive),11.3 µM (inactive),13.2 µM (inactive),10.6 µM (inactive),10.9 µM (inactive),13.8 µM (inactive),15.7 µM (inactive),14.4 µM (inactive),0.942 µM (active),10.1 µM (inactive),12.2 µM (inactive),0.441 µM (active),13.1 µM (inactive),12.3 µM (inactive),15.7 µM (inactive),14.7 µM (inactive),14.8 µM (inactive),15 µM (inactive),16.9 µM (inactive),5.78 µM (inactive)
O=Cc1cc([N+](=O)[O-])no1,–,> 100 µM (inactive),36 µM (inactive),35.2 µM (inactive),11 µM (inactive),38.1 µM (inactive),> 100 µM (inactive),18.7 µM (inactive),78.9 µM (inactive),44.9 µM (inactive),17.2 µM (inactive),71.8 µM (inactive),24.7 µM (inactive),> 100 µM (inactive),> 100 µM (inactive),38.9 µM (inactive),14.8 µM (inactive),53.3 µM (inactive),28.5 µM (inactive),> 100 µM (inactive)
CC(C)Cc1ccc(C(C)/C=C2\CCC(CN3CCOCC3)C2=O)cc1 (stereo not drawn),16 µM (inactive),18 µM (inactive),9.44 µM (inactive),11.6 µM (inactive),5.26 µM (inactive),11.7 µM (inactive),15.5 µM (inactive),5.47 µM (inactive),20.3 µM (inactive),14.8 µM (inactive),17.7 µM (inactive),20.7 µM (inactive),12.3 µM (inactive),8.43 µM (inactive),9.12 µM (inactive),9.27 µM (inactive),3 µM (inactive),13.5 µM (inactive),7.14 µM (inactive),8.73 µM (inactive)
C(=C\c1nccs1)/c1cccc(/C=C/c2nccs2)n1,> 50 µM (inactive),> 50 µM (inactive),> 50 µM (inactive),27.7 µM (inactive),> 50 µM (inactive),> 50 µM (inactive),> 50 µM (inactive),> 50 µM (inactive),> 50 µM (inactive),> 50 µM (inactive),> 50 µM (inactive),> 50 µM (inactive),> 50 µM (inactive),> 50 µM (inactive),> 50 µM (inactive),> 50 µM (inactive),> 50 µM (inactive),34.8 µM (inactive),> 50 µM (inactive),> 50 µM (inactive)
Cc1occc1C(=S)Nc1ccc(Cl)c(C(=O)OC(C(C)C)C(C)C)c1,12.1 µM (inactive),17.1 µM (inactive),9.59 µM (inactive),9.23 µM (inactive),10.1 µM (inactive),17.2 µM (inactive),7.82 µM (inactive),12.5 µM (inactive),15.2 µM (inactive),13.6 µM (inactive),14.7 µM (inactive),22.6 µM (inactive),7.46 µM (inactive),13.3 µM (inactive),12.5 µM (inactive),14.9 µM (inactive),16.6 µM (inactive),10.8 µM (inactive),4.85 µM (inactive),5 µM (inactive)
CSc1nc(Cl)c2c(n1)Sc1nc3ccccc3n1C2O (stereo not drawn),5.89 µM (inactive),1.85 µM (inactive),2.64 µM (inactive),3.91 µM (inactive),2.48 µM (inactive),13.8 µM (inactive),5.31 µM (inactive),3.44 µM (inactive),29.1 µM (inactive),13.4 µM (inactive),17.2 µM (inactive),4.92 µM (inactive),4.29 µM (inactive),1.58 µM (inactive),6.79 µM (inactive),4.85 µM (inactive),3.52 µM (inactive),3.67 µM (inactive),13.5 µM (inactive),3.44 µM (inactive)
CC1(C)OC(C(=O)Nc2cc3c4ccccc4ccc3c3ccccc23)C(C(=O)N2CCCCC2)O1 (stereo not drawn),0.897 µM (active),0.493 µM (active),0.966 µM (active),> 74.1 µM (inactive),0.507 µM (active),17.6 µM (inactive),31.6 µM (inactive),2.18 µM (inactive),60.4 µM (inactive),0.385 µM (active),21.5 µM (inactive),> 100 µM (inactive),3.33 µM (inactive),1.17 µM (inactive),> 39.4 µM (inactive),9.18 µM (inactive),0.813 µM (active),1.14 µM (inactive),> 25.1 µM (inactive),2.17 µM (inactive)
Cc1nnc2n1N=C(c1cc(F)c(Cl)cc1Cl)/C(=C/c1ccc(Cl)cc1)S2,16.5 µM (inactive),10.1 µM (inactive),33.4 µM (inactive),13.4 µM (inactive),7 µM (inactive),15.7 µM (inactive),19.6 µM (inactive),12.8 µM (inactive),23.2 µM (inactive),13.9 µM (inactive),13.7 µM (inactive),6.46 µM (inactive),20.6 µM (inactive),17.2 µM (inactive),38.8 µM (inactive),14.9 µM (inactive),37.7 µM (inactive),17 µM (inactive),17 µM (inactive),11.3 µM (inactive)
CCC/C(Cl)=N\OC(=O)Nc1ccc(OC(F)(F)F)cc1,2.19 µM (inactive),1.66 µM (inactive),1.82 µM (inactive),19.5 µM (inactive),9.4 µM (inactive),18.1 µM (inactive),2.22 µM (inactive),9.48 µM (inactive),15.6 µM (inactive),20.5 µM (inactive),18.6 µM (inactive),19.6 µM (inactive),17.7 µM (inactive),16 µM (inactive),19.6 µM (inactive),8.57 µM (inactive),2.53 µM (inactive),27 µM (inactive),19.6 µM (inactive),8.53 µM (inactive)
C(CCc1nnc2c(n1)CCCC2)Cc1nnc2c(n1)CCCC2,> 100 µM (inactive),> 100 µM (inactive),> 100 µM (inactive),> 100 µM (inactive),> 100 µM (inactive),> 100 µM (inactive),> 100 µM (inactive),> 100 µM (inactive),> 100 µM (inactive),> 100 µM (inactive),> 100 µM (inactive),> 100 µM (inactive),85.7 µM (inactive),> 100 µM (inactive),> 100 µM (inactive),> 100 µM (inactive),> 100 µM (inactive),> 100 µM (inactive),–,> 100 µM (inactive)
O=C(c1ccccc1)c1c2ccccn2c2cccc[n+]12,–,> 100 µM (inactive),20.1 µM (inactive),> 100 µM (inactive),> 100 µM (inactive),> 100 µM (inactive),> 100 µM (inactive),> 100 µM (inactive),> 100 µM (inactive),> 100 µM (inactive),> 100 µM (inactive),> 100 µM (inactive),> 100 µM (inactive),> 100 µM (inactive),> 100 µM (inactive),–,> 100 µM (inactive),> 100 µM (inactive),> 100 µM (inactive),–
O=C(C=P(c1ccccc1)(c1ccccc1)c1ccccc1)c1cccc(-c2cccc([N+](=O)[O-])c2)c1,2.89 µM (inactive),1.86 µM (inactive),1.53 µM (inactive),3.27 µM (inactive),3.55 µM (inactive),8.04 µM (inactive),1.32 µM (inactive),3.67 µM (inactive),–,2.88 µM (inactive),2.45 µM (inactive),3.1 µM (inactive),2.84 µM (inactive),5.66 µM (inactive),3.1 µM (inactive),2.97 µM (inactive),3.33 µM (inactive),3.89 µM (inactive),–,3.11 µM (inactive)
